Assays:
Assay type in all cases: cell-based
Jurkat T cells [1] = experiment: Radio frequency sensor device measurement of cellular energy metabolism in Jurkat T cell suspension (Example 1); conditions: for radio frequency peak in magnitude at 64 MHz: final concentration 200 mg/dl in low D-glucose DMEM, about 8 h
Description: Jurkat T cells were obtained from American Type Culture Collection (ATCC) (#TIB-152) and maintained in high D-Glucose Dulbecco's Modified Eagle Medium (DMEM) (THERMO FISHER SCIENTIFIC INC., #10565042, 17.5 mM/315 mg/dl D-glucose) supplemented with 10% fetal bovine serum (FBS, THERMO FISHER SCIENTIFIC INC., #16140071), penicillin/streptomycin (Pen/Strep), beta-Mercaptoethanol (b-ME) in a 37° C. humidified incubator, 5% CO2. At time point 0:00 (hr.: min.), Jurkat T cells (3×10^9) were suspended in three separate solutions of low D-glucose DMEM (THERMO FISHER SCIENTIFIC INC., #10565042, 5.5 mM (100 mg/dl D-glucose) supplemented with fetal bovine serum (10% v/v, THERMO FISHER SCIENTIFIC INC. #16140071), penicillin/streptomycin (Pen/Strep), beta-mercaptoethanol (20 ml of media, 5×10^7 cells per mL each) in tissue culture dishes (10 cm). The cell suspension was placed in an incubator at 37° C. at maximum humidity, carbon dioxide concentration of 5%. Cells were mixed continuously on an orbital shaker (60 rpm). Following 60 minutes of incubation for equilibration, a sensor device of this disclosure was placed in each solution. To the resulting solutions were added 200 μl of media containing 100× D-glucose (e.g., to a final concentration of 200 mg/dl), control media (identical media, but containing low D-glucose (5.5 mM, 100 mg/dl)), and media containing 100× 2-deoxy-D-glucose (identical media, but replacing D-glucose with 2-deoxy-D-glucose at a final concentration of e.g., 200 mg/dl). The radio frequency was detected at 64MHz with the sensor device over the course of approximately 8 h.

Jurkat T cells [2] = experiment: Radio frequency monitoring device measurement at 64 MHz in Jurkat T cell suspensions (Example 5); conditions: for net change in radio frequency magnitude (plain medium subtracted as background): 64 MHz
Description: The degree of cellular energy metabolism was monitored by radio frequency in Jurkat T cell suspensions to compare to direct intracellular ATP measurement of Example 4. Jurkat T cell suspensions were maintained as in Example 4. A radio frequency monitoring device was placed in the cell culture and monitored at 64 MHz frequency as a function of time. Cells were stimulated by addition of (a) D-glucose (180 mg/dl final concentration in DMEM), (b) 2-deoxy-D-glucose (2DG, 180 mg/dl final concentration in DMEM), (c) D-glucose (180 mg/dl final concentration) and BAY-876 (a glucose transporter 1 inhibitor, 5 μM final concentration), and (d) DMEM with low D-glucose (5.5 mM, 100 mg/dl, ‘plain medium’). All stimulations were conducted with the same volume of liquid.

Jurkat T cells [3] = experiment: Luciferase-based assay of intracellular ATP concentration (CELLTITER-GLO 2.0); conditions: D-glucose 15.5 mM (280 mg/dl final) versus low D-glucose 5.5 mM
Description: Intracellular ATP concentrations were assessed using a luciferase-based assay to determine the rate of ATP production following addition of glucose. Jurkat T cells (1×10^7 cells per well in low D-glucose DMEM (100 μl, 5.5 mM, 100 mg/dl D-glucose)) were aliquoted into flat-bottom 96-well plates. Cells were stimulated with DMEM either containing D-glucose (15.5 mM, 280 mg/dl final solution) or low D-glucose (5.5 mM, 100 mg/dl), an effective difference of 10 mM (180 mg/dl) glucose, at time point 0 min. Cells were quantitatively removed from the incubation plate. An aliquot of cell suspension (50 μl) was transferred onto frozen CELLTITER-GLO® 2.0 (PROMEGA CO.) assay reagent on dry ice. The resulting mixture was thawed, and the ATP concentration measured via light emission in a 96-well plate-compatible luminometer. The resulting curve of luciferase activity in relative luminescence units (RLUs) over time (min. following stimulation) is shown in FIG. 7. […] Glucose transport is rapid as indicated by the rapid increase of ATP concentration following addition of D-glucose.

[4] = 180 mg/dl final concentration in DMEM

Compound	radio frequency peak in magnitude at 64 MHz (Jurkat T cells [1])	magnitude at 64 MHz over time (curve shape) (Jurkat T cells [2]; [4])	net change in radio frequency magnitude (plain medium subtracted as background) (Jurkat T cells [2]; [4])	magnitude at 64 MHz over time (curve shape) (Jurkat T cells [2]; BAY-876 5 μM final with D-glucose 180 mg/dl final)	time of apex of radio frequency peak (Jurkat T cells [1]; D-glucose 200 mg/dl final)	difference in luminescence (net ATP concentration) over time (Jurkat T cells [3])
O=CC[C@@H](O)[C@H](O)[C@H](O)CO [2-deoxy-D-glucose]	no detectable peak	an initial peak, similar to D-glucose, the magnitude at 64 MHz quickly adopts a similar linear decline	only an initial net increase	–	–	–
Cc1c(NC(=O)c2cc(C(N)=O)nc3cc(F)ccc23)c(C(F)(F)F)nn1Cc1ccc(C#N)cc1 [BAY-876]	–	–	–	a smooth decline becoming linear over time	–	–
O=C[C@H](O)[C@@H](O)[C@H](O)[C@H](O)CO [D-glucose]	a broad peak was observed	both a peak shortly after addition of stimulus, and a more gradual decline	an initial net increase in magnitude followed by a slow net decrease	–	approximately 4 h	an increase in net ATP concentration followed by a slower decrease in net ATP concentration
